The values that follow come from patent US11168087B2, “Substituted imidazo[1,2-b]pyridazines, substituted imidazo[1,5-b]pyridazines, related compounds, and their use in the treatment of medical disorders” (BIAL—R&D Investments, S.A., priority 2016, dated 2021).

In brackets after ≈: the same amount, converted by molar mass.

Data set [1] in a line: Compound solubility in water. Type of data set: physicochemical.
Data set [2] concerns the target T1, glucocerebrosidase (Gcase) (Homo sapiens, UniProt P04062).
T1 construct: micellar solution containing 10 nM GCase and 100 nM saposin C
T1 sequence (P04062 40-536): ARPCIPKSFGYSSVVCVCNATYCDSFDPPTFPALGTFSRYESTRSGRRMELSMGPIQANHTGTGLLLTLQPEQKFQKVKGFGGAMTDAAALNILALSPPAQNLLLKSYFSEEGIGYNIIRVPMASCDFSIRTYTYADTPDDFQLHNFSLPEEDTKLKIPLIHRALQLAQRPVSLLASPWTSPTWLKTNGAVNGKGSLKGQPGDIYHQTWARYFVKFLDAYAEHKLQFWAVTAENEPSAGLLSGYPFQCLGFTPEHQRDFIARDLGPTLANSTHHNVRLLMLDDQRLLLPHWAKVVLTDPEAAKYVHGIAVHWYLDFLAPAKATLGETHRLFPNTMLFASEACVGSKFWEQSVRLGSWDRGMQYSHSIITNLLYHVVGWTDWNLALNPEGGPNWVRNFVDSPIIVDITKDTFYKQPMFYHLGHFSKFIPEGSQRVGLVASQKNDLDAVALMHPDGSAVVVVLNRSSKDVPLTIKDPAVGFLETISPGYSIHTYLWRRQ
Description: Glucocerebrosidase (Gcase) activation assay, 4-methylumbelliferyl-beta-D-glucopyranoside substrate, with saposin C. It is filed as biochemical. The note with it: 0.25 h; for activation at 0.1 µM: read-out: Percent Gcase Activation 0.1 μM Test Compound; for activation at 1 µM: read-out: Percent Gcase Activation 1 μM Test Compound. The essentials:
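Human GCase (10 nM) with 100 nM saposin C in Triton X-100/phosphatidylserine micelles, citrate-phosphate pH 4.7, preincubated with compound 30 min RT; 2 mM 4-MU-β-glucoside (substrate solution) added, 15 min RT, stopped with glycine pH 12.5, fluorescence 365/440 nm. Screened at 1.0 and 0.1 μM; 8-point curves from 5 μM top.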

`CCCCCCOC1CCC(NC(=O)c2ncc3c(C)cc(C)nn23)CC1` (stereo not drawn) returned a solubility in data set [1] of 23.1 µg/mL (≈ 62 µM). Moreover, in data set [2], the activation at 0.1 µM lay within 5 to 20% and the activation at 1 µM was over 20%.
`Cc1cc(-c2cccnc2)nc2c(C(=O)NC(C)(C)C3CC3)nsc12`: the solubility in data set [1] was 0.7 µg/mL (≈ 1.99 µM). For the same compound, in data set [2], the activation at 0.1 µM was under 5% and the activation at 1 µM is 5 to 20%.
On to `Cc1ccc(-c2cc(C)c3ncc(C(=O)N[C@@H](C4CC4)C(F)(F)F)n3n2)cn1` [(S)-6-(6-Methylpyridin-3-yl)-N-(1-cyclopropyl-2,2,2-trifluoroethyl)-8-methylimidazo[1,2-b]pyridazine-3-carboxamide], for which, in data set [2], the activation at 0.1 µM is under 5% and the activation at 1 µM was over 20%.
For `Cc1cc(-c2cccc(F)c2)nn2c(C(=O)N[C@@H](C3CC3)C(F)(F)F)ncc12` [(S)—N-(1-Cyclopropyl-2,2,2-trifluoroethyl)-2-(3-fluorophenyl)-4-methylimidazo[1,5-b]pyridazine-7-carboxamide], in data set [2], the activation at 0.1 µM was over 20% and the activation at 1 µM is over 20%.
Turning to `Cc1cc(N2CCN(C(C)C)C2=O)nn2c(C(=O)N[C@@H](C3CC3)C(F)(F)F)ncc12` [(S)—N-(1-Cyclopropyl-2,2,2-trifluoroethyl)-2-(3-isopropyl-2-oxoimidazolidin-1-yl)-4-methylimidazo[1,5-b]pyridazine-7-carboxamide], in data set [2], the activation at 0.1 µM lay in the range of 5 to 20% and the activation at 1 µM was over 20%.
Taken in the same sequence, the figures for `Cc1cc(-c2cc(C)c3cnc(C(=O)N[C@@H](C4CC4)C(F)(F)F)n3n2)sn1` [(S)—N-(1-Cyclopropyl-2,2,2-trifluoroethyl)-4-methyl-2-(3-methylisothiazol-5-yl)imidazo[1,5-b]pyridazine-7-carboxamide] were 5 to 20% and over 20%.
As for `Cc1cc(-c2ccc3ncn(C)c3c2)nn2c(C(=O)N[C@@H](C3CC3)C(F)(F)F)cnc12` [(S)—N-(1-Cyclopropyl-2,2,2-trifluoroethyl)-8-methyl-6-(1-methyl-1H-benzo[d]imidazol-6-yl)imidazo[1,2-b]pyridazine-3-carboxamide], in data set [2], the activation at 0.1 µM fell in the range of 5 to 20% and the activation at 1 µM is over 20%.
Consider `Cc1cc(C)c2onc(C(=O)NC(C3CC3)C(F)(F)F)c2n1` (stereo not drawn) [N-(1-Cyclopropyl-2,2,2-trifluoroethyl)-5,7-dimethylisoxazolo[4,5-b]pyridine-3-carboxamide], for which, in data set [2], the activation at 0.1 µM is under 5% and the activation at 1 µM was over 20%.
For the compound `Cc1cc(C)c2occ(C(=O)Nc3ccc4c(c3)CCC4)c2n1` [N-(2,3-Dihydro-1H-inden-5-yl)-5,7-dimethylfuro[3,2-b]pyridine-3-carboxamide], in data set [2], the activation at 0.1 µM was in the range of 5 to 20% and the activation at 1 µM is over 20%.
Turning to `Cc1cc(C)c2snc(C(=O)Nc3ccc4c(c3)CCC4)c2n1` [N-(2,3-Dihydro-1H-inden-5-yl)-5,7-dimethylisothiazolo[4,5-b]pyridine-3-carboxamide], in data set [2], the activation at 0.1 µM was over 20% and the activation at 1 µM was over 20%.
`Cc1cc(C)c2onc(C(=O)Nc3ccc4c(c3)CCC4)c2n1` [N-(2,3-Dihydro-1H-inden-5-yl)-5,7-dimethylisoxazolo[4,5-b]pyridine-3-carboxamide]: in data set [2], the activation at 0.1 µM lay within 5 to 20% and the activation at 1 µM is over 20%.
Take `Cc1cc(C)c2onc(C(=O)NC(C)(C)C3CC3)c2n1` [N-(2-Cyclopropylpropan-2-yl)-5,7-dimethylisoxazolo[4,5-b]pyridine-3-carboxamide]: in data set [2], the activation at 0.1 µM was in the range of 5 to 20% and the activation at 1 µM is over 20%.
`Cc1cc(N2CC(C(C)C)OC2=O)nn2c(C(=O)N[C@H](C3CC3)C(F)(F)F)cnc12` (stereo partly drawn) [N—((R)-1-Cyclopropyl-2,2,2-trifluoroethyl)-6-(5-isopropyl-2-oxooxazolidin-3-yl)-8-methylimidazo[1,2-b]pyridazine-3-carboxamide]: in data set [2], the activation at 0.1 µM was 5 to 20% and the activation at 1 µM is over 20%.
Consider `Cc1cc(N2CC(C(C)C)OC2=O)nn2c(C(=O)N[C@@H](C3CC3)C(F)(F)F)cnc12` (stereo partly drawn) [N—((S)-1-Cyclopropyl-2,2,2-trifluoroethyl)-6-(5-isopropyl-2-oxooxazolidin-3-yl)-8-methylimidazo[1,2-b]pyridazine-3-carboxamide], for which, in data set [2], the activation at 0.1 µM is under 5% and the activation at 1 µM was over 20%.

As a reminder, the solubility is how much of the substance goes into solution per volume. A lower solubility goes with little dissolved substance.
